The source made the active and inactive calls.
Experiments:
[1] = molecular target: Structural maintenance of chromosomes protein 2 (Homo sapiens, UniProt O95347)
[2] = molecular target: Tyrosine-protein kinase Fyn (Homo sapiens, UniProt P06241)
[3] = molecular target: Serine/threonine-protein kinase/endoribonuclease IRE2 (Homo sapiens, UniProt Q76MJ5)
[4] = molecular target: T1, Serine/threonine-protein kinase NLK (Homo sapiens, UniProt Q9UBE8)
T1 sequence (Q9UBE8 whole entry): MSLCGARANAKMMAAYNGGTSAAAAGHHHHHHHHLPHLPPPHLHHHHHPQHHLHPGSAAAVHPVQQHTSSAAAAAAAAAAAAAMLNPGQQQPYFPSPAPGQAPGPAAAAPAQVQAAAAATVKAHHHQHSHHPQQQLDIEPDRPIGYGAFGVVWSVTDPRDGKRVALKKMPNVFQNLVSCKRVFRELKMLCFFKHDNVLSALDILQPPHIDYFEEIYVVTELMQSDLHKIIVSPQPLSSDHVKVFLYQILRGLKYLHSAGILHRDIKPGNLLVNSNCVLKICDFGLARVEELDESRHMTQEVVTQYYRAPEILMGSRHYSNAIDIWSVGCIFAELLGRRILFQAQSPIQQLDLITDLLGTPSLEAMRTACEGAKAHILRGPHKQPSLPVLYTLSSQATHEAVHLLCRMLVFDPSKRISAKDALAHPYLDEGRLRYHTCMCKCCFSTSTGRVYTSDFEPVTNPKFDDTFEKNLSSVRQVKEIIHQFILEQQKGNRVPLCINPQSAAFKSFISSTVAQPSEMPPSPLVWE

[5] = molecular target: STE20-like serine/threonine-protein kinase (Homo sapiens, UniProt Q9H2G2)
[6] = molecular target: T2, Non-receptor tyrosine-protein kinase TNK1 (Homo sapiens, UniProt Q13470)
T2 sequence (Q13470 whole entry): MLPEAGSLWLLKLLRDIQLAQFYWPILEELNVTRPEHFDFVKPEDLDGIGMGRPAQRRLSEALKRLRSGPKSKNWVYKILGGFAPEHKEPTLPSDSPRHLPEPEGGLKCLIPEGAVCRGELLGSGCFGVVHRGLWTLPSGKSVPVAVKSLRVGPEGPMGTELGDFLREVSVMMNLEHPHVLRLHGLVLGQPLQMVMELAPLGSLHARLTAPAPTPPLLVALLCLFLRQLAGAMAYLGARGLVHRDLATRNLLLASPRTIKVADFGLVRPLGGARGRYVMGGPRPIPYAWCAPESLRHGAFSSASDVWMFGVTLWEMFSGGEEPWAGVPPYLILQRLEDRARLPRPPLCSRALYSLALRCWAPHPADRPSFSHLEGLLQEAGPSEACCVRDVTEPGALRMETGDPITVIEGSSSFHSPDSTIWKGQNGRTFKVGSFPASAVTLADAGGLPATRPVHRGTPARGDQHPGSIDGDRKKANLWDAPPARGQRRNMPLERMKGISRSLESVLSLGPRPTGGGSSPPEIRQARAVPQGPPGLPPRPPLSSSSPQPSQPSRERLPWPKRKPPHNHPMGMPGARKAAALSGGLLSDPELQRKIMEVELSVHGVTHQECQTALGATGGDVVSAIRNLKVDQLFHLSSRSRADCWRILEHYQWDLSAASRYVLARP

Ephrin type-A receptor 5 = Ephrin type-A receptor 5 (Homo sapiens, UniProt P54756)
[7] = molecular target: 26S proteasome regulatory subunit 6B (Homo sapiens, UniProt P43686)
[8] = molecular target: T3, Ras-related protein Rab-27A (Homo sapiens, UniProt P51159)
T3 sequence (P51159 whole entry): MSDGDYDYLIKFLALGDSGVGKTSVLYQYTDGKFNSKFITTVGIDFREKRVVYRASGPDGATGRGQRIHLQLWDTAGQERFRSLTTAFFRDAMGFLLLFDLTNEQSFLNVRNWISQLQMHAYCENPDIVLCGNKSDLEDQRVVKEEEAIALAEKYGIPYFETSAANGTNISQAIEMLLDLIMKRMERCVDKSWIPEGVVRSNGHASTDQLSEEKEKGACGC

[9] = molecular target: T4, Succinate--CoA ligase [ADP-forming] subunit beta, mitochondrial (Homo sapiens, UniProt Q9P2R7)
T4 sequence (Q9P2R7 whole entry): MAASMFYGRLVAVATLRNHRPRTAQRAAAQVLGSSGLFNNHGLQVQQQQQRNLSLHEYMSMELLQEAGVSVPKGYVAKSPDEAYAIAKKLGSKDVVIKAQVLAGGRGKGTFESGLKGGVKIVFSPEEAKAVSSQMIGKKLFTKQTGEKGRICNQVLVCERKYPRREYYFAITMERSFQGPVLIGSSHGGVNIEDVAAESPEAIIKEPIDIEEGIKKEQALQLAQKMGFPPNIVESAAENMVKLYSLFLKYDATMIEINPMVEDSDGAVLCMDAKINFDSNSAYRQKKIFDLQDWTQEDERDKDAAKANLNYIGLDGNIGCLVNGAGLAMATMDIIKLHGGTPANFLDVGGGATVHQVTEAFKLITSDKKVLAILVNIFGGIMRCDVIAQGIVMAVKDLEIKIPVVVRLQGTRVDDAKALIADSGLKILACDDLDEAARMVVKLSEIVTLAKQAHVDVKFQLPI

[10] = molecular target: T5, Tyrosine--tRNA ligase, cytoplasmic (Homo sapiens, UniProt P54577)
T5 sequence (P54577 whole entry): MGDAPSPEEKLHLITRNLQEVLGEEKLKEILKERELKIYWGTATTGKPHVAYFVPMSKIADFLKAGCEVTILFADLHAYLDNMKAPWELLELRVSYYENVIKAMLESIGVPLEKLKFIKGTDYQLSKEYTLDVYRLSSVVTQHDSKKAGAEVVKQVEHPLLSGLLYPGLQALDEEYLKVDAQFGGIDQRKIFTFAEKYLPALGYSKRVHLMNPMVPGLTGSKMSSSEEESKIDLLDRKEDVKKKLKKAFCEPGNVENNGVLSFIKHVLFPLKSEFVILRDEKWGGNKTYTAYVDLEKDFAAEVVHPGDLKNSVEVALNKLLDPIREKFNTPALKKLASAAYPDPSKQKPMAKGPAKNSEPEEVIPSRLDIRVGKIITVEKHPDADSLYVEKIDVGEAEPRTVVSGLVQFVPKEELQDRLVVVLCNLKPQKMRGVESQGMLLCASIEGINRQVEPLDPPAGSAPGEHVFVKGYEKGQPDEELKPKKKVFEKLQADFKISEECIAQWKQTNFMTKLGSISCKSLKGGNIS
Note: in the data inactive means no Kd found up to 30 µM.

Chain of Serine/threonine-protein kinase/endoribonuclease IRE2 (Q76MJ5 whole entry): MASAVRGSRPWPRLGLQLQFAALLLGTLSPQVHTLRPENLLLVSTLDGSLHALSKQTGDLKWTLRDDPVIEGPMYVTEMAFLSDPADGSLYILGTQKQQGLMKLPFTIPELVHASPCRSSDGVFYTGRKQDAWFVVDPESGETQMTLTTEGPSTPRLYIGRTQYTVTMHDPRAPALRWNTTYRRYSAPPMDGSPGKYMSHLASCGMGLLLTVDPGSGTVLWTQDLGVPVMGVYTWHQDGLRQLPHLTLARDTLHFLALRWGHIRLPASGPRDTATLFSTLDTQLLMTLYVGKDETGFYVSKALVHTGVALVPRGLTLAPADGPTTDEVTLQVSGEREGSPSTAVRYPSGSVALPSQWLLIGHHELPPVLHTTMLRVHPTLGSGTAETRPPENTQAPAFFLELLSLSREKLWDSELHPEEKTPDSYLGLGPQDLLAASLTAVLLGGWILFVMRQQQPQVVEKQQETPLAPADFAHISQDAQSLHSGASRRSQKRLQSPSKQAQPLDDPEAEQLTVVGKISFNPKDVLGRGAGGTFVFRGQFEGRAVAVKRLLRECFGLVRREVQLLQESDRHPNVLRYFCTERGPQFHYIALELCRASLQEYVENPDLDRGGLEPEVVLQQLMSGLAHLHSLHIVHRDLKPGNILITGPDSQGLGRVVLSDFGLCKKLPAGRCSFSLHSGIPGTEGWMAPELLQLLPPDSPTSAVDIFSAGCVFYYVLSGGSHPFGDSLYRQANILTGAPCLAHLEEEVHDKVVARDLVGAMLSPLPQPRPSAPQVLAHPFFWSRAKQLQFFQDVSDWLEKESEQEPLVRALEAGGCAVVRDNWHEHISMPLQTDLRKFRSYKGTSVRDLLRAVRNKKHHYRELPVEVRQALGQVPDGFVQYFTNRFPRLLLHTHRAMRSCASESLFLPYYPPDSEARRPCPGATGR
Chain of Ephrin type-A receptor 5 (P54756 whole entry): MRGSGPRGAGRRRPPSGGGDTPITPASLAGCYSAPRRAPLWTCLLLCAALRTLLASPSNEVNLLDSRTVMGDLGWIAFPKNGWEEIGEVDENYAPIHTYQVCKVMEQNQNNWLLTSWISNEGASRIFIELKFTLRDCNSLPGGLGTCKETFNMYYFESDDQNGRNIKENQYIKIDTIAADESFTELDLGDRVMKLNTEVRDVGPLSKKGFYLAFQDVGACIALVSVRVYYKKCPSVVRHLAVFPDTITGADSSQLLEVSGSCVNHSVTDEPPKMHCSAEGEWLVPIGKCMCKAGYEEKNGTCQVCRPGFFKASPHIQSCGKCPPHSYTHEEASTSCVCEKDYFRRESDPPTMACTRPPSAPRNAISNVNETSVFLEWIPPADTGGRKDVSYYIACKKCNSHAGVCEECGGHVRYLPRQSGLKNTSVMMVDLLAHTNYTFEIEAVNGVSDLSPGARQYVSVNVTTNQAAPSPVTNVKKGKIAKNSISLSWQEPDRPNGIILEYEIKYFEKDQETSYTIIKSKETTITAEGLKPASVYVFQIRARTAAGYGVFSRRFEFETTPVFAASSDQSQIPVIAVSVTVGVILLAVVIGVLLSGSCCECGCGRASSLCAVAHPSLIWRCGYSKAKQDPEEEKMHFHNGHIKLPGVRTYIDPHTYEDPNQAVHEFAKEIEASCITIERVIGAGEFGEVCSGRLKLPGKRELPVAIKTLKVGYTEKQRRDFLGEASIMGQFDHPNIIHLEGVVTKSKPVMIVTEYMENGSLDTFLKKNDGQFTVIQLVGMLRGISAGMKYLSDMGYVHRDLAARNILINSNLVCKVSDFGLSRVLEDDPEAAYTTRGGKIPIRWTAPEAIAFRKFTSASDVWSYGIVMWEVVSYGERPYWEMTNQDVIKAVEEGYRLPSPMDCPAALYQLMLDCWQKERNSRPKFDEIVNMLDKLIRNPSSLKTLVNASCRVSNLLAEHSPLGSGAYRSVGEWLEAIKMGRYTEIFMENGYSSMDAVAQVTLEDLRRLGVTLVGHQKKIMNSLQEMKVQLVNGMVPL
Chain of STE20-like serine/threonine-protein kinase (Q9H2G2 whole entry): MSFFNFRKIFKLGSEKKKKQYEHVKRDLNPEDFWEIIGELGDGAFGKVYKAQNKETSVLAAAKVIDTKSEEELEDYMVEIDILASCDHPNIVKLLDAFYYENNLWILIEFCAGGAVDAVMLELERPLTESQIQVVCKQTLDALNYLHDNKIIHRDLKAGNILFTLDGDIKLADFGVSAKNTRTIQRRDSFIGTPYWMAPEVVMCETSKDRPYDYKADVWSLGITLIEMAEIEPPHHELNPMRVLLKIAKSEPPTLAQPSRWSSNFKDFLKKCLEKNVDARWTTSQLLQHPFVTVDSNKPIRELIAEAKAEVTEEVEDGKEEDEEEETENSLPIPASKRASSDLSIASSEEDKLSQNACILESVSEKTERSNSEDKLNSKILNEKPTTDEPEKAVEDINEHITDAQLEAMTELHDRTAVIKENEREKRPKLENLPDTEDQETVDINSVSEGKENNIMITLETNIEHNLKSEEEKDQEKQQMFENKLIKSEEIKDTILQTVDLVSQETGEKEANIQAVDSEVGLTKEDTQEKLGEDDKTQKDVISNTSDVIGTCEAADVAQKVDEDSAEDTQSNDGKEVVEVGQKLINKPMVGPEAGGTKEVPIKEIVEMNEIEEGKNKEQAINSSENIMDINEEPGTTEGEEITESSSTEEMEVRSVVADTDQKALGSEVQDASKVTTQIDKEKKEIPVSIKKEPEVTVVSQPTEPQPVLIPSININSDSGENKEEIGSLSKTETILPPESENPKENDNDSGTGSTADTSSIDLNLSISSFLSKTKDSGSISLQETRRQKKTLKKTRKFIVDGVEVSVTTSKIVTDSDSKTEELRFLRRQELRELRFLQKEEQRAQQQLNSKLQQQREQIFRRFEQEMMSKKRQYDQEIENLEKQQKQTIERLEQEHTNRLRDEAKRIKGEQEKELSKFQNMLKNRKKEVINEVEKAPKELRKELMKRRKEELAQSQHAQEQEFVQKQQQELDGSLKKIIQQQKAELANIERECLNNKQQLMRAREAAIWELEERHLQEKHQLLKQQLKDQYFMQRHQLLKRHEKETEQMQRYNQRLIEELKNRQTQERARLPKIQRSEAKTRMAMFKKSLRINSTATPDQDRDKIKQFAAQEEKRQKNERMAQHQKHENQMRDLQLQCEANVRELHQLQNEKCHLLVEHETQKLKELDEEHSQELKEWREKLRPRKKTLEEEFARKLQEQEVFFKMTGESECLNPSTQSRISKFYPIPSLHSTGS
Chain of 26S proteasome regulatory subunit 6B (P43686 whole entry): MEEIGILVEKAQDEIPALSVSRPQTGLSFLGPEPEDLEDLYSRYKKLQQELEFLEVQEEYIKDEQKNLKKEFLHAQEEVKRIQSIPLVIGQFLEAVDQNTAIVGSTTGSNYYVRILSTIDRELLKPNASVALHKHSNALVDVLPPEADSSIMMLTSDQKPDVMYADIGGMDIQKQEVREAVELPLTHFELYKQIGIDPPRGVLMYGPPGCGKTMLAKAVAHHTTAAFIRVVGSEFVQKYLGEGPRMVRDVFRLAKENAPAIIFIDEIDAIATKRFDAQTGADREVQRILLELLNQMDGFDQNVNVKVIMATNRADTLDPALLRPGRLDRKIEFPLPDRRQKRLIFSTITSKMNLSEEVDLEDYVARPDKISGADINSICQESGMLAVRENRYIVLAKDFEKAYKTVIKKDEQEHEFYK
Chain of Tyrosine-protein kinase Fyn (P06241 whole entry): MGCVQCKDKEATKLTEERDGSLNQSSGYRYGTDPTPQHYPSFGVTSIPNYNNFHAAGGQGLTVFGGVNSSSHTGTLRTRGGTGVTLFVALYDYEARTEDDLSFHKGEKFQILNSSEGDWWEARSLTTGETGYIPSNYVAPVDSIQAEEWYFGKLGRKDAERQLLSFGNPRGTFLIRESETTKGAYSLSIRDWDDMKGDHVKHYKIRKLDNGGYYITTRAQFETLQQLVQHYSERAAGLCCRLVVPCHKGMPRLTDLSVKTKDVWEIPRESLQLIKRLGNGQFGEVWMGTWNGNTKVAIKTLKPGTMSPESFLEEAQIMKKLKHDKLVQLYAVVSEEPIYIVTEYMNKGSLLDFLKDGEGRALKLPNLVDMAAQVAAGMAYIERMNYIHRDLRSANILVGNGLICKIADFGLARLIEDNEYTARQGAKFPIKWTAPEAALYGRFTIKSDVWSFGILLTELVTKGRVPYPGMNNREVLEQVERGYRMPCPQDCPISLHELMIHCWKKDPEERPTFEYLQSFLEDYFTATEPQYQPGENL

Row | Kd [1] | Kd [2] | Kd [3] | Kd [4] | Kd [5] | Kd [6] | Kd (Ephrin type-A receptor 5) | Kd [7] | Kd [8] | Kd [9] | Kd [10] | SMILES
1 | > 30 µM (inactive) | > 30 µM (inactive) | > 30 µM (inactive) | > 30 µM (inactive) | > 30 µM (inactive) | > 30 µM (inactive) | > 30 µM (inactive) | > 30 µM (inactive) | > 30 µM (inactive) | > 30 µM (inactive) | > 30 µM (inactive) | CC(C)Nc1cc(-c2c[nH]c(C(=O)N[C@H](CO)c3cccc(Cl)c3)c2)c(Cl)cn1 [ULIXERTINIB]
2 | > 30 µM (inactive) | > 30 µM (inactive) | > 30 µM (inactive) | > 30 µM (inactive) | > 30 µM (inactive) | > 30 µM (inactive) | > 30 µM (inactive) | > 30 µM (inactive) | > 30 µM (inactive) | > 30 µM (inactive) | > 30 µM (inactive) | Cn1cc(-c2ccc3nnc(C(F)(F)c4ccc5ncccc5c4)n3n2)cn1 [JNJ-38877605]
3 | > 30 µM (inactive) | > 30 µM (inactive) | > 30 µM (inactive) | > 30 µM (inactive) | > 30 µM (inactive) | > 30 µM (inactive) | > 30 µM (inactive) | > 30 µM (inactive) | > 30 µM (inactive) | > 30 µM (inactive) | > 30 µM (inactive) | C[C@@H]1CN(Cc2ccc(F)cc2)[C@@H](C)CN1C(=O)c1cc2c(C(=O)C(=O)N(C)C)cn(C)c2cc1Cl [TALMAPIMOD]
4 | > 30 µM (inactive) | 1.53 µM (active) | > 30 µM (inactive) | > 30 µM (inactive) | 36.3 µM (active) | 0.033 µM (active) | > 30 µM (inactive) | > 30 µM (inactive) | > 30 µM (inactive) | > 30 µM (inactive) | > 30 µM (inactive) | COc1cc(N2CCC(N3CCN(C)CC3)CC2)ccc1Nc1ncnc(Nc2ccccc2S(=O)(=O)C(C)C)n1 [ASP-3026]
5 | > 30 µM (inactive) | > 30 µM (inactive) | > 30 µM (inactive) | > 30 µM (inactive) | > 30 µM (inactive) | > 30 µM (inactive) | > 30 µM (inactive) | > 30 µM (inactive) | > 30 µM (inactive) | > 30 µM (inactive) | > 30 µM (inactive) | CNC(=O)c1ccc(-c2cnc3ncc(Cc4ccc5ncccc5c4)n3n2)cc1F [CAPMATINIB]
6 | > 30 µM (inactive) | > 30 µM (inactive) | > 30 µM (inactive) | > 30 µM (inactive) | > 30 µM (inactive) | > 30 µM (inactive) | 0.835 µM (active) | > 30 µM (inactive) | > 30 µM (inactive) | > 30 µM (inactive) | > 30 µM (inactive) | CNC(=O)CN1CCC(Oc2cc3c(Nc4cccc(Cl)c4F)ncnc3cc2OC)CC1 [SAPITINIB]
7 | > 30 µM (inactive) | > 30 µM (inactive) | > 30 µM (inactive) | > 30 µM (inactive) | > 30 µM (inactive) | > 30 µM (inactive) | > 30 µM (inactive) | > 30 µM (inactive) | > 30 µM (inactive) | > 30 µM (inactive) | > 30 µM (inactive) | Cc1ccc(S(=O)(=O)Nc2nc3ccccc3nc2Nc2ccc3nsnc3c2)cc1

Row | SMILES | Kd [1] | Kd [2] | Kd [3] | Kd [4] | Kd [5] | Kd [6] | Kd (Ephrin type-A receptor 5) | Kd [7] | Kd [8] | Kd [9] | Kd [10]
8 | C=CC(=O)N1CCC(Oc2cc3c(Nc4ccc(Cl)c(Cl)c4F)ncnc3cc2OC)CC1 [POZIOTINIB] | > 30 µM (inactive) | > 30 µM (inactive) | > 30 µM (inactive) | > 30 µM (inactive) | > 30 µM (inactive) | 1.68 µM (active) | > 30 µM (inactive) | > 30 µM (inactive) | > 30 µM (inactive) | > 30 µM (inactive) | > 30 µM (inactive)
9 | CN1CC[C@@H](c2c(O)cc(O)c3c(=O)cc(-c4ccccc4Cl)oc23)[C@@H]1CO | > 30 µM (inactive) | > 30 µM (inactive) | > 30 µM (inactive) | 1.48 µM | > 30 µM (inactive) | > 30 µM (inactive) | > 30 µM (inactive) | > 30 µM (inactive) | > 30 µM (inactive) | > 30 µM (inactive) | > 30 µM (inactive)
